“Also recorded” adds a separate entry of the source.
How the values were obtained:
MDA-MB-231 = assay: 72 hr viability by CTG, breast cancer cell line; assay type: cell-based
Method: (§1) Breast cancer is a heterogeneous disease historically broken down into 4 subtypes. Various compounds were tested for their effects in cell viability assays using various breast cancer cell lines. Cellular viability was assessed using the CellTiter-Glo® Luminescent Cell Viability Assay (Promega, Madison, Wis., USA) according to the manufacturer's protocol. KRAS mutant NSCLC cell lines were seeded into 96-well plates based on optimal growth rates determined empirically for each line. Twenty-four hours after plating, cells were dosed with graded concentrations of ganetespib for 72 h. CellTiter-Glo® was added (50% v/v) to the cells, and the plates incubated for 10 min prior to luminescent detection in a SpectraMax® Plus 384 microplate reader (Molecular Devices, Sunnyvale, Calif., USA). Data were normalized to percent of control and IC50 values used to determine the sensitivity of each line. For the comparative analysis study with MEK and PI3K/mTOR inhibitors, A549, H2009, Calu-1, and H358 cells were treated with graded concentrations of ganetespib, AZD6244, or BEZ235 for 72 h and cell viability measured as above.
(§2) Breast cancer, cell lines, marker status, and IC50 in response to ganetespib at 72 hr (viability by CTG).
Basal breast cancer is a subtype believed to be more stem like and less differentiated than luminal breast cancer, and therefore more aggressive with limited treatment options. […]

BT-474 = assay: 72 hr viability by CTG, breast cancer cell line; assay type: cell-based; conditions: Homo sapiens, BT-474, Luminal, ER+ PR+ HER2+, viability by CTG (2D)
Method: as §1, §2

MCF7 = assay: 72 hr viability by CTG, breast cancer cell line; assay type: cell-based; conditions: Homo sapiens, MCF7, Luminal, ER+ PR+
Method: as §1, §2

MDA-MB-468 = assay: 72 hr viability by CTG, breast cancer cell line; assay type: cell-based; conditions: Homo sapiens, MDA-MB-468, Basal A
Method: as §1, §2

OCUB-M = assay: 72 hr viability by CTG, breast cancer cell line; assay type: cell-based; conditions: Basal
Method: as §1, §2

SK-BR-3 = assay: 72 hr viability by CTG, breast cancer cell line; assay type: cell-based; conditions: Homo sapiens, SK-BR-3, Luminal, HER2+
Method: as §1, §2

GT3TKB = assay: 72 hr viability by Syto60, gastric cell line; assay type: cell-based; conditions: Syto60 (lower), read-out: ganetespib IC50
GCIY = assay: 72 hr viability by Syto60, gastric cell line; assay type: cell-based; conditions: Homo sapiens, Syto60 (lower), read-out: ganetespib IC50
SNU-5 = assay: 72 hr viability by Syto60, gastric cell line; assay type: cell-based; conditions: Homo sapiens, Syto60 (lower), read-out: ganetespib IC50
[1] = system: Detroit 562 H/N cancer cells; assay: Single agent viability assay, 72 hr, head and neck cancer cells; assay type: cell-based
Text: Head and neck (H/N) cancer refers to a group of biologically similar cancers originating from the upper autodigestive tract. First line therapies include EGFR inhibitors and platins. Modulation of EGFR and other client proteins by ganetespib was investigated in Detroit 562 H/N cancer cells.

A549 cells = assay: Combinatorial viability analysis, 72 hours; assay type: cell-based
Method: (§3) For combinatorial analysis, cells were seeded in 96-well plates at a predetermined, optimum growth density for 24 h prior to the addition of drug or vehicle to the culture medium. Drug combinations were applied at a non-constant ratio over a range of concentrations for 72 or 96 hours. […] Cell viability was assessed by either AlamarBlue® (Invitrogen, Carlsbad, Calif.) or CellTiter-Glo® assays and normalized to vehicle controls. For each combination study, the level of growth inhibition (fraction affected) is plotted relative to vehicle control. Data are presented as one relevant combination point and the corresponding single agent data for each cell line tested.

H2009 cells = assay: Combinatorial viability analysis, 72 hours; assay type: cell-based
Method: as §3

H2030 cells = assay: Combinatorial viability analysis, 72 hours; assay type: cell-based
Method: as §3

H358 cells = assay: Combinatorial viability analysis, 72 hours; assay type: cell-based
Method: as §3

[2] = system: Mia-PaCa2, HPAC and PANC-1 cells; assay: Proliferation of pancreatic cancer cell lines, 24 hours (confirmed by XTT assay); assay type: cell-based; conditions: p<0.001, one way ANOVA
Method: Mia-PaCa2, PANC-1, HPAC and ASPC-1 cell lines (ATCC, Manassas, Va.) were cultured according to the ATCC manual. Medium was supplemented with 10% fetal bovine serum (Invitrogen Corporation, Carlsbad, Calif.), 50 units/ml penicillin, and 50 μg/ml streptomycin (Life Technologies, Inc., Frederick, Md.). Cells were incubated at 37° C. in a humidified 5% CO2 atmosphere.

VEGF secretion = assay: VEGF ELISA of conditioned medium of pancreatic cancer cell lines; assay type: cell-based
Method: VEGF concentration in the conditioned medium (from control and treated cells) was determined using a commercial Human VEGF Quantikine ELISA kit (R&D systems, Minneapolis, Minn.) as per manufacturer's instructions.

angiogenesis = assay: Egg CAM and matrigel plug angiogenesis assays; parameters: species or system chicken; conditions: all three models
Method: The conditioned medium was collected from control and treated cells. 100 μl of conditioned medium, either control or treated, was injected into fertilized chicken eggs. Eggs were incubated at 37° C. for 15 days, then dissected and the membrane was photographed.
It's postulated that functional inhibition of Hsp90 by ganetespib can inhibit angiogenesis and growth in vitro and in vivo models of pancreatic cancer. PANC-1 and HPAC cell lines were treated with vehicle or G (50 nM) for 24 h and lysates were analyzed by Western blot. Egg CAM and matrigel plug assays were performed to quantify the effects of ganetespib on angiogenesis. Efficacy of ganetespib (100 mg/kg) was assessed in mice bearing HPAC and ASPC-1 xenograft.
Mia-PaCa2, PANC-1 and HPAC cells were treated with Ganetespib (50 nM) or control for 24 hours, the conditioned medium was harvested and 100 μl of conditioned or control medium was injected into fertilized chicken eggs (Avian Vaccine Service center, North Franklin, Conn.). Eggs were incubated at 37° C. for 15 days and dissected. Chorioallantoic membrane was photographed.

[3] = ganetespib combined with pemetrexed
[4] = ganetespib in combination with gemcitabine
[5] = low nanomolar ganetespib combined with camptothecin

CC(C)c1cc(-c2nnc(O)n2-c2ccc3c(ccn3C)c2)c(O)cc1O [ganetespib]
Anticancer activity in the basal line MDA-MB-231 (MDA-MB-231; 72 hr viability assay, FIG. 1): highly potent, killing all the cells | IC50 (MDA-MB-231; Homo sapiens, MDA-MB-231, Basal B, 72 hr, viability by CTG): 0.024 µM | IC50 (BT-474): 0.013 µM | IC50 (MCF7): 0.025 µM | IC50 (MDA-MB-468): 0.027 µM | IC50 (OCUB-M): 0.039 µM | IC50 (SK-BR-3): 0.01 µM | IC50 (GT3TKB): 0.006 µM | IC50 (GCIY): 0.009 µM | IC50 (SNU-5): 0.031 µM | Cell viability after a 72 hr exposure ([1]; Detroit 562): A fraction of cells remained viable | IC50 ([1]; Homo sapiens, Detroit 562, single agent viability, 72 hr): 0.042 µM | Increase in cytotoxicity (A549 cells; [3]): marginal increase in cytotoxicity | Increased cell death (A549 cells; [4]): 1.4 fold | Enhanced cell death (H2009 cells; [3]): 1.5 fold | Increased cell death (H2009 cells; [4]): 2.3 fold | Fold increase in cytotoxicity (H2009 cells; [5]): 1.5 fold | Enhanced cell death (H2030 cells; [3]): 2.4 fold | Fold increase in cytotoxicity (H2030 cells; [5]): 3.4 fold | Increase in cytotoxicity (H358 cells; [3]): marginal increase in cytotoxicity | Benefit of combination (H358 cells; [4]): no benefit | Fold increase in cytotoxicity (H358 cells; [5]): 1.4 fold | Proliferation of Mia-PaCa2, HPAC and PANC-1 cells [2]: decreases proliferation | VEGF secretion in the culture medium (VEGF secretion): reduced VEGF secretion; also recorded: decrease in VEGF secretion; also recorded: down-regulation of VEGF secretion | Angiogenesis compared to vehicle (angiogenesis): reduced angiogenesis

Reference: patent US20150253330A1, “PRE-SELECTION OF SUBJECTS FOR THERAPEUTIC TREATMENT WITH AN HSP90 INHIBITOR BASED ON HYPOXIC STATUS” (Synta Pharmaceuticals Corp., priority 2012, published 2015)
